Reference: patent US8822174B1, “Sterilization indicator for oxidative sterilants” (priority 2013, dated 2014)
Several values for one entry are separate records, joined by “and”; a condition that tells them apart may be missing. Identical values can stand only once.

Test system: Geobacillus stearothermophilus spores
Type: cell-based
Protocol: Geobacillus stearothermophilus spores are resuspended in potassium ferricyanide concentrations ranging from 0.5 μg/ml to 200 mg/ml in samples having a spore concentration of 1E8 per ml (1×10^8 spores per milliliter). SCBI vials are inoculated with 20 μl (≈2 million spores) of each of the sample suspensions and air dried at least overnight. The SCBIs are then capped and run in a VHP BIER vessel for the times shown in Table 1 below using a 0.8 g injection of 59% hydrogen peroxide.
Geobacillus stearothermophilus spores are resuspended in Prussian blue concentrations ranging from 0.5 μg/ml to 123 mg/ml at a spore concentration of 1E8 per ml. SCBI vials are inoculated with 20 μl (≈2 million spores) of the appropriate suspension and air dried at least overnight. The SCBIs are then capped and run in a VHF) BIER vessel for the times listed below using a 0.8 g injection of 59% hydrogen peroxide.

Structure (SMILES): [C-]#N.[C-]#N.[C-]#N.[C-]#N.[C-]#N.[C-]#N.[C-]#N.[C-]#N.[C-]#N.[C-]#N.[C-]#N.[C-]#N.[C-]#N.[C-]#N.[C-]#N.[C-]#N.[C-]#N.[C-]#N.[Fe+2].[Fe+2].[Fe+2].[Fe+3].[Fe+3].[Fe+3].[Fe+3] [Prussian Blue, Prussian blue]
- Killed/Total Samples: 0/10 and 8/10 and 3/10 and 7/10* and 1/10* and 6/10* and 2/10* and 10/10
- grow out results compared with potassium ferricyanide (Table 1): comparable results
